Source: US20060194819A1, “Activation specific inhibitors of nf-kb and method of treating inflammatory processes in cardio-vascular diseases” (PROCORDE GMBH, priority 2003, published 2006)

Legend:
[1] = target: T1, IKK-complex (Homo sapiens, UniProt O14920+O15111+Q9Y6K9); assay: Cellular IKK kinase assay: HeLa cells treated with compound, TNF alpha stimulation, IKK-complex immunoprecipitated with anti-NEMO-antibody, I kappaB peptide phosphorylation by alpha screen; type: cell-based
T1 construct: IKK-complex was immunoprecipitated with anti-NEMO-antibody; endogenous in cells; host or cells: HeLa
T1 sequence (O14920 whole entry): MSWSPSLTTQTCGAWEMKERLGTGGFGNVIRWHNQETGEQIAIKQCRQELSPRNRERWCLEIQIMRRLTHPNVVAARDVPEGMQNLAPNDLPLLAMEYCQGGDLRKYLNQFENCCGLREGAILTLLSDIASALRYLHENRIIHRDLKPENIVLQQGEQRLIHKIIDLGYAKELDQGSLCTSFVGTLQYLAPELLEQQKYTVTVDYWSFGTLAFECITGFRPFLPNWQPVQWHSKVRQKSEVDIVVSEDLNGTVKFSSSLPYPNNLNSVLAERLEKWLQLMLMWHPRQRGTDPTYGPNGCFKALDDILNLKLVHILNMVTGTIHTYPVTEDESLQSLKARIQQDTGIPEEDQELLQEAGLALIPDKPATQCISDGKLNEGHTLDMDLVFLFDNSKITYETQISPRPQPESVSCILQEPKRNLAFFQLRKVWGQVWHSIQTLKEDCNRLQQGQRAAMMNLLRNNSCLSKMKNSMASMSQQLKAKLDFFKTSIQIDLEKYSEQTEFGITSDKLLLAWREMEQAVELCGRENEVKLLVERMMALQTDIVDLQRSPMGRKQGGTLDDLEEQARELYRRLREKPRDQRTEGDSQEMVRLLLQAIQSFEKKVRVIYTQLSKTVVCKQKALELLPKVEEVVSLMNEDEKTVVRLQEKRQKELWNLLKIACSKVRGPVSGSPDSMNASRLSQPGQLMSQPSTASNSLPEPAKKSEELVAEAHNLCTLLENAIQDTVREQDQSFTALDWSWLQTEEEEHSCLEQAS
T1 sequence (O15111 whole entry): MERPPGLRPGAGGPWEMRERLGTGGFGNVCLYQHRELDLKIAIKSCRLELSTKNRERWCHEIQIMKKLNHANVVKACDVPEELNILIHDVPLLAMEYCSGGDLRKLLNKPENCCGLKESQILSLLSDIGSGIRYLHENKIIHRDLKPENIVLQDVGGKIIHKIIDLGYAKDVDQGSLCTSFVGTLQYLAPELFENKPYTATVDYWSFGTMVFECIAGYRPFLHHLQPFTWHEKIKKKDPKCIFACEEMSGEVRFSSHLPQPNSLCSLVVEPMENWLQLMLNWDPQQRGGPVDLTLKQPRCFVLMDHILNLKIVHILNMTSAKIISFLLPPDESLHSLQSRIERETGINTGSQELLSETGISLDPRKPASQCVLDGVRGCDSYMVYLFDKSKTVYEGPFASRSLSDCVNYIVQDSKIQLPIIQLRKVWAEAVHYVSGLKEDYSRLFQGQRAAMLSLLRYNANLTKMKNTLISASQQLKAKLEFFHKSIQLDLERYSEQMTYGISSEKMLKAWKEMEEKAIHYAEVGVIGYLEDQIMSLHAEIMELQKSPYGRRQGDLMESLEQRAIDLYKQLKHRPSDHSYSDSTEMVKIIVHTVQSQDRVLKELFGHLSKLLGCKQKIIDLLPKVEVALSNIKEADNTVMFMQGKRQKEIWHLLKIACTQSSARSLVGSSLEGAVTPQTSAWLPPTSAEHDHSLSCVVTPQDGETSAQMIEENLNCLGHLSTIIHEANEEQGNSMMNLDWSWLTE
T1 sequence (Q9Y6K9 whole entry): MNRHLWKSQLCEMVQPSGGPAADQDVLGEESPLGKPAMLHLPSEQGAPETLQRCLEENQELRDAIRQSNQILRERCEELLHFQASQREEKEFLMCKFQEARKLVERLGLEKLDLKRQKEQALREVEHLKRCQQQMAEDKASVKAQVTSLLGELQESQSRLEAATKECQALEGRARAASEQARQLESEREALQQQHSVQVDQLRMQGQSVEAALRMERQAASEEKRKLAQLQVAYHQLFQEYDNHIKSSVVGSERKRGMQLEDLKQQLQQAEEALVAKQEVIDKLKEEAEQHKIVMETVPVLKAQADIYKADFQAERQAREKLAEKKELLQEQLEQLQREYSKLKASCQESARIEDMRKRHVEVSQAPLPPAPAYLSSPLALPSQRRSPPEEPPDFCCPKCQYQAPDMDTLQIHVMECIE
Description: (§1) Kinase Assay Protocol: HeLa cells were maintained in Dulbecco's modified Eagle's medium (Invitrogen) supplemented with 10% fetal bovine serum, 2 mM L-glutamine, penicillin (50 units/ml) and streptomycin (50 μg/ml). 24 h before treatment with different compounds HeLa cells were plated at a density of 5×10^6 per well in 100-mm cell culture dishes to 90% confluences.
The cells were incubated with different drugs at the concentration indicated for 1 h, washed twice with PBS and stimulated with 20 ng/ml TNF alpha (Roche). After 7 min the cells were washed twice with ice cold PBS followed by scraping and transferring into a 1.5 ml microcentrifuge tube. After centrifugation by 2000 rpm for 2 min by 4° C. the PBS supernatant was removed and 200 μl Lyse-buffer (10 mM Hepes, pH 7.9, 0.1% NP40, 10 mM, 300 mM Sucrose, 10 mM KCl, 15 mM MgCl2, 1 mM DTT, 0.5 mM PMSF and antipain, aprotinin, leupeptin each 0.75 μg/ml (Sigma) was added to the pellet. The resuspended pellet was incubated on ice for 5 min and centrifuged at 13000 g for 30 s. The supernatant, cytosolic extract, was added to 200 μl TNT-buffer (200 mM NaCl, 20 mM Tris/HCl pH 7.5, 1% Triton X-100). Unspecific binding was blocked by incubation with 3 μg of normal rabbit IgG (Sigma) and 6 mg resuspended and prewashed Protein A Sepharose CI-4B (Pharmacia Biotech) for 30 min by 4° C. followed by immunoprecipitation for 1.5 h at 4° C. with 2 μg of anti-NEMO-antibody (Santa Cruz Biotechnology) and 6 mg resuspented and prewashed Protein A Sepharose CI-4B (Parmacia Biotech). […] 6.6 μl of detection-buffer (20 mM Hepes pH 7.5, 100 mM NaCl, 1% Tween, 0.1 mM BSA, 50 μg/ml Protein A-Acceptor beads, 250 μg/ml Streptavidin-Donor beads (both Perkin-Elmer), 4 nM anti-phospho-IKB antibody (Santa Cruz Biotechnology) was dispensed to each well. After incubation for 1.5 h the plate was measured by alpha screen reader (Perkin Elmer). […]

[2] = system: I KappaB alpha phosphorylation; assay: P-IkBalpha detection in Western blot of HeLa cell lysates after TNF alpha stimulation; type: cell-based; conditions: HeLa cells, 10 and 100 μM
Description: as §1, with “P-IkBα Detektion in Western-Blot” for “Kinase Assay”
The cells were incubated with different drugs at the concentration indicated for 1 h, washed twice with PBS and stimulated with 20 ng/ml TNF alpha (Roche). After 7 min the cells were washed twice with ice cold PBS followed by scraping and transferring into a 1.5 ml micro centrifuge tube. After centrifugation by 2000 rpm for 2 min by 4° C. the PBS supernatant was removed and 200 μl lysis-buffer (10 mM Hepes, pH 7.9, 0.1% NP40, 10 mM, 300 mM Sucrose, 10 mM KCl, 15 mM MgCl2, 1 mM DTT, 0.5 mM PMSF and antipain, aprotinin, leupeptin each 0.75 μg/ml (Sigma) was added to the pellet. The resuspended pellet was incubated on ice for 5 min and centrifuged at 13000 g for 30 s. 30 μl of the supernatant, cytosolic extract, was diluted with Laemmli-buffer (2% SDS, 2% 2-Mercaptoethanol, 0.01% Bromophenol blue, 8% Glycerine), heated by 60° C. for 10 min and loaded to a 4-20% polyacrylamid gels (BioRad). After electrophoresis the proteins were transferred to a nitrocellulose membrane using the wet blotting technique. First the membrane was blocked with Roti-Block (Roth) and afterwards incubated with monoclonal antibodies against P-IkBalpha (Santa Cruz Biotechnology, used at 1:200 dilution). This incubation was followed by the appropriate horseradish peroxidase-conjugated secondary antibody (Dianova) at 1:10000 dilution. Antibody binding was visualized on x-ray film using the Western blot Chemiluminescent Reagent Detection Kit (Santa Cruz).

IC50 ([1]; HeLa cells, TNF alpha 20 ng/ml, alpha screen, n=4, read-out: IC50 for inhibition of IKK activity (phosphorylation of substrate peptide for I KappaB)): ~850 nM | potency to inhibit the IKK activity, higher than the other 73 family members ([1]; cellular assay with HeLa cells): 10 times
SMILES: CCOC(=O)C1=C(C)N=c2s/c(=C/c3ccc(-c4cccc(C(=O)O)c4)o3)c(=O)n2C1c1ccc(Cl)cc1 (stereo not drawn) [COM 56, 2-[5-(3-Carboxyphenyl)-furan-2-ylmethylene]-5-(4-chlorophenyl)-7-methyl-3-oxo-2,3-dihydro-5H-thiazolo[3,2-a]pyrimidine-6-carboxylic acid ethyl ester]
effect on IkappaB phosphorylation (Western blot), comparison of COM 73 and COM 54 family [2]: concentration-dependently inhibited
